Square brackets hold non-standard residues; d marks the D form. Peptide text beside a SMILES is read from it. Nspe = C[C@H](NCC(=O)O)c1ccccc1; NDecylGly = CCCCCCCCCCNCC(=O)O; Nlys = NCCCCNCC(=O)O
Key:
K. pneumoniae JIE2709 = assay: Checkerboard microdilution synergy test; format: cell-based, Klebsiella pneumoniae
Protocol: (§1) Then, 10 µl of bacteria (5 × 10^6 CFU ml^−1) or C. auris (2.5 × 10^4 CFU ml^−1) were added to each well, except for the sterility control well. […] The sterility control wells contained only MHB (or RPMI in case of C. auris), and the growth control contained 110 µl of microbial inoculum with no antimicrobials. Subsequently, the plates were incubated for 18- 24 hours at 36 ± 1 °C.
(§2) The FIC for each combination interaction was calculated as follows:
(§3) Then, the summation of FIC (ƩFIC) was calculated for each antimicrobial combination as follows: ƩFIC = FICA + FICB. […] All antimicrobial synergy experiments were repeated in at least two independent runs.

K. pneumoniae JIE2713 = assay: Checkerboard microdilution synergy test; format: cell-based, Klebsiella pneumoniae
Protocol: as §1, §2, §3

C. auris CBS10913 = assay: Checkerboard microdilution synergy test; format: cell-based, Candida auris
Protocol: (§4) The checkerboard microdilution test was performed to determine the fractional inhibitory concentration (FIC) of selected antimicrobials and assess whether the combination had synergistic, antagonistic, or indifferent effects (Anon [2016]) against strains of K. pneumoniae or C. auris. […] Additionally, a strain susceptible to ciprofloxacin was tested to observe the outcome of its combination with TM8 as a representative case from susceptible isolates. […] Then, 10 µl of bacteria (5 × 10^6 CFU ml^−1) or C. auris (2.5 × 10^4 CFU ml^−1) were added to each well, except for the sterility control well. […] The sterility control wells contained only MHB (or RPMI in case of C. auris), and the growth control contained 110 µl of microbial inoculum with no antimicrobials. Subsequently, the plates were incubated for 18- 24 hours at 36 ± 1 °C.
as §2
(§5) Then, the summation of FIC (ƩFIC) was calculated for each antimicrobial combination as follows: ƩFIC = FICA + FICB. The results were interpretated as follows: Synergy if ƩFIC ≤ 0.5; Additive if 0.5<ƩFIC ≤ 1; Indifference if […] ≤ 4; and Antagonism if ƩFIC > 4 (Odds [2003]). All antimicrobial synergy experiments were repeated in at least two independent runs.

C. auris CBS12373 = assay: Checkerboard microdilution synergy test; format: cell-based, Candida auris
Protocol: as §4, §2, §5

C. auris CBS 10913 [1] = assay: Time-kill kinetics; format: cell-based, Candida auris; settings: RPMI, 35°C, three independent runs
Protocol: Killing kinetics (time-kill) were evaluated as described previously (Lum et al. [2015]). […] At set intervals (0, 0.5, 1, 1.5, 2, 2.5, 3, 4, 5, 6, 12, and 24 h), 100 µl samples were serially diluted in PBS and plated on Sabouraud dextrose agar (SDA; Oxoid, UK) with 0.5% polysorbate 80 (Chem-supply, SA, Australia). CFUs were enumerated, with a yeast growth control processed similarly. Results were presented from three independent runs.

[2] = test system: C. auris CBS12373 biofilm; assay: Initial biofilm inhibition, MTT reduction assay; format: cell-based, Candida auris
[3] = test system: C. auris CBS12373 biofilm; assay: Initial biofilm inhibition, crystal violet assay; format: cell-based, Candida auris; settings: crystal violet staining
Protocol: Another set of experiments was conducted under similar conditions similar to those used for MTT assay.

C. auris CBS 10913 [4] = assay: microbe, parasite or virus in culture; format: cell-based, Candida auris; settings: CBS 10913, 48 h
Protocol: Amphotericin B was tested in parallel as a positive control (Ramesh et al. [2023]).

[5] = as low as; ref Nielsen et al. [2022]; cited from earlier work
From the text: Lipopeptoids can self-assemble into micellar macromolecules due to the hydrophobic tail domains driven by the intermolecular hydrophobic interactions. […] In a ...

[6] = test system: S. aureus, K. pneumoniae, P. aeruginosa, and En. cloacae biofilm; settings: ref Nielsen et al. [2022]; cited from earlier work
From the text: Another way microbes can acquire tolerance and become resistant to antimicrobials is by the production of biofilms. In biofilms, microbes switch from planktonic state to sessile form, where they are encased in an extracellular polymeric substance matrix, thereby being protected from stressful environmental conditions (Di Fermo et al. [2024]). Most ESKAPEE pathogens and C. auris form antimicrobial tolerant biofilms associated with device-associated infections (Kean and Ramage [2019], Sarkar et al. [2024]). The antibiofilm activity of some of these peptoids has already been studied against ESKAP ...

Compound: CCCCCCCCCCNCC(=O)N(CCCCN)CC(=O)N(CC(=O)N(CC(=O)N(CCCCN)CC(=O)N(CC(=O)N(CC(N)=O)[C@@H](C)c1ccccc1)[C@@H](C)c1ccccc1)[C@@H](C)c1ccccc1)[C@@H](C)c1ccccc1 [TM8] (H-[NDecylGly][Nlys][Nspe][Nspe][Nlys][Nspe][Nspe]-NH2)
- MIC of TM8 (alone, checkerboard) (K. pneumoniae JIE2709): 15.625 µg/mL
- FICTM8 (K. pneumoniae JIE2709; TM8 with Cefotaxime): 0.5
- MF of TM8 (modulation factor) (K. pneumoniae JIE2709; TM8 with Cefotaxime): 2
- Outcome (K. pneumoniae JIE2709; TM8 with Cefotaxime): Additive (Additive if 0.5<ƩFIC ≤ 1)
- ƩFIC (K. pneumoniae JIE2709; TM8 with Cefotaxime): 1
- FICTM8 (K. pneumoniae JIE2709; TM8 with Ciprofloxacin): 0.5
- MF of TM8 (modulation factor) (K. pneumoniae JIE2709; TM8 with Ciprofloxacin): 2
- Outcome (K. pneumoniae JIE2709; TM8 with Ciprofloxacin): Additive (Additive if 0.5<ƩFIC ≤ 1)
- ƩFIC (K. pneumoniae JIE2709; TM8 with Ciprofloxacin): 1
- FICTM8 (K. pneumoniae JIE2709; TM8 with Meropenem): 0.5
- MF of TM8 (modulation factor) (K. pneumoniae JIE2709; TM8 with Meropenem): 2
- ƩFIC (K. pneumoniae JIE2709; TM8 with Meropenem): 0.625
- MIC of TM8 (alone, checkerboard) (K. pneumoniae JIE2713): 15.625 µg/mL
- FICTM8 (K. pneumoniae JIE2713; TM8 with Aztreonam): 0.5
- MF of TM8 (modulation factor) (K. pneumoniae JIE2713; TM8 with Aztreonam): 2
- MIC of TM8 + DrugB (K. pneumoniae JIE2713; TM8 with Aztreonam): 7.8125 µg/mL
- ƩFIC (K. pneumoniae JIE2713; TM8 with Aztreonam): 1
- FICTM8 (K. pneumoniae JIE2713; TM8 with Cefotaxime): 0.5
- MF of TM8 (modulation factor) (K. pneumoniae JIE2713; TM8 with Cefotaxime): 2
- ƩFIC (K. pneumoniae JIE2713; TM8 with Cefotaxime): 1
- FICTM8 (K. pneumoniae JIE2713; TM8 with Ciprofloxacin): 0.25
- MF of TM8 (modulation factor) (K. pneumoniae JIE2713; TM8 with Ciprofloxacin): 4
- ƩFIC (K. pneumoniae JIE2713; TM8 with Ciprofloxacin): 0.273
- FICTM8 (K. pneumoniae JIE2713; TM8 with Gentamicin): 0.5
- MF of TM8 (modulation factor) (K. pneumoniae JIE2713; TM8 with Gentamicin): 2
- ƩFIC (K. pneumoniae JIE2713; TM8 with Gentamicin): 1
- MIC of TM8 (alone, checkerboard) (C. auris CBS10913): 7.813 µg/mL
- FICTM8 (C. auris CBS10913; TM8 with Fluconazole): 0.5
- MF of TM8 (modulation factor) (C. auris CBS10913; TM8 with Fluconazole): 2
- ƩFIC (C. auris CBS10913; TM8 with Fluconazole): 0.563
- MIC of TM8 (alone, checkerboard) (C. auris CBS12373): 3.9 µg/mL
- FICTM8 (C. auris CBS12373; TM8 with Fluconazole): 0.5
- MF of TM8 (modulation factor) (C. auris CBS12373; TM8 with Fluconazole): 2
- ƩFIC (C. auris CBS12373; TM8 with Fluconazole): 0.563
- Time to 3-log reduction (C. auris CBS 10913 [1]; 1× MIC): ≤ 6 h
- Time to complete killing of the yeast cells (C. auris CBS 10913 [1]; 1× MIC): ≤ 12 h
- Time to fungicidal activity (C. auris CBS 10913 [1]; 4× MIC): ≤ 2 h
- Biofilm tolerance factor-inhibition (MBIC/MIC) [2]: 2
- MBIC for initial biofilm [3]: 31.25 µg/mL
- MIC in the absence of ergosterol (C. auris CBS 10913 [4]): 7.8 µg/mL
- MIC in the presence of exogenous ergosterol (C. auris CBS 10913 [4]): 31.25 µg/mL
- Concentration at which self-assembly into an ellipsoidal form is found [5]: 1000 ng/mL
- Concentration with significant inhibition of biofilm formation [6]: 1.56 µg/mL

From publication PMC11879280, “Antimicrobial activity of peptoids against Metallo-β-lactamase-producing Klebsiella pneumoniae, Acinetobacter baumannii, Pseudomonas aeruginosa, and other WHO priority pathogens, including Candida auris” (Journal of Applied Microbiology, 2025)
